The target in one assay is PDI (Homo sapiens, UniProt P07237). To be noted: insulin reduction assay, reported in the literature; cited from earlier work.
In assay [1] the target is T1, Protein disulfide isomerase (PDI) from bovine liver (Bos taurus, UniProt P05307).
T1 construct: Protein disulfide isomerase (PDI) from bovine liver (Catalog number P3818); purchased Sigma P3818; host or cells: bovine liver (tissue-derived enzyme)
T1 sequence (P05307 21-510): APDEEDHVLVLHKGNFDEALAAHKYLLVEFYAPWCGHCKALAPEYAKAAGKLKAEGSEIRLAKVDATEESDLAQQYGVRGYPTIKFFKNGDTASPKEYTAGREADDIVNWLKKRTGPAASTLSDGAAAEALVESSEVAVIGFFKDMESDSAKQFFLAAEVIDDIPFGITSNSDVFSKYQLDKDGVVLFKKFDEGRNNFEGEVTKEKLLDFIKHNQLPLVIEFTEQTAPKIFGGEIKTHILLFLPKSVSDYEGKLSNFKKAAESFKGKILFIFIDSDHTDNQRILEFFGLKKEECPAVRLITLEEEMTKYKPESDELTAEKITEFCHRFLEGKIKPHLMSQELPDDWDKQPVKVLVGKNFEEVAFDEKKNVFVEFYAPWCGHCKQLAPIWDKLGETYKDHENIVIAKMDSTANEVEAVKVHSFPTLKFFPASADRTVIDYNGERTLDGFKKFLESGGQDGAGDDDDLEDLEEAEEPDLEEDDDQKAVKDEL
Briefly: High-throughput turbidometric assay of PDI-catalyzed insulin reduction (OD650, H2O2 stop). In kind it is biochemical. On the procedure: Protein disulfide isomerase (PDI) from bovine liver (Catalog number P3818), insulin from bovine pancreas (Catalog number 14011), dithiothreitol (Catalog number D9779), H2O2 (Catalog number H6520) and bacitracin (Catalog number B0125) were purchased from Sigma. A stock solution of 1.6 mM insulin was prepared by dissolving insulin in 0.1 N HCl. Clear polystyrene 384-well assay plates were obtained from Greiner (Catalog number 781101). All reagents used in this study were of analytical grade.
The assay utilized the method according to Bonfils (1998) Eur J Biochem 254:420–427, but was miniaturized in 384-well plates. The assay buffer consisted of 100 mM potassium phosphate and 0.2 mM EDTA, pH 7.0. In a standard room temperature assay, insulin from a 1.6 mM stock solution and PDI from a 5 mg/mL stock were added to final concentrations of 0.16 mM and 33 ug/mL in assay buffer, respectively. Aliquots of the reaction mixture were then added at 30 μL per well to 384-well assay plates. To initiate the reaction, 5 μL of 7 mM dithiothreitol (final concentration 1 mM) was added and quickly mixed. The enzyme reaction was monitored at 650 nm on a SpectraMax Plus plate reader (Molecular Devices, Sunnyvale, Calif.).
For high-throughput screening, a Biomek 2000 liquid handling system (Beckman-Coulter, Palo Alto, Calif.) was used to add 5 μL of 1 M positive control H2O2 to each well in column 24 of the assay plates. Then a Biomek FX384 pipettor (Beckman-Coulter, Palo Alto, Calif.) was programmed to automate the subsequent additions. The pipettor aspirated 29 μL of the enzyme/substrate mixture, applied a 0.5-μL air gap, dipped into DMSO to wash the pipette tip exterior, pipetted 1 μL of 300 μM compound, and then dispensed the entire volume into the assay plate. After the dispense step, the compound was mixed well with the enzyme and substrate. Following a 10 min pre-incubation, 5 μL of 7 mM dithiothreitol was dispensed into the reaction wells. This was followed immediately by a mixing step, in which 20 μL of the mixture was aspirated and dispensed twice in the well. The reaction was allowed to proceed for 30 min and stopped by adding 5 μL of 1 M H2O2 (final concentration 125 mM) to each well. The optical density of each well was measured at 650 nm on the SpectraMax Plus plate reader.
For data analysis, the results are presented as mean±standard deviation. Dose-response curves were fitted by least square regression using Prism (version 3.03). The Z′ factor was calculated according to Zhang et al. (1999) J Biomol Screen 4:67–73.

Several values for one entry are separate records, joined by “and”; a condition that tells them apart may be missing. Identical values can stand only once. Where a SMILES comes first, the peptide text is derived from it.

These results are taken from patent publication US6977142B2, “High-throughput turbidometric assay for screening inhibitors of protein disulfide isomerase activity” (AGY Therapeutics, Inc., priority 2003, dated 2005).

Sequence of PDI (P07237 18-508, species assumed): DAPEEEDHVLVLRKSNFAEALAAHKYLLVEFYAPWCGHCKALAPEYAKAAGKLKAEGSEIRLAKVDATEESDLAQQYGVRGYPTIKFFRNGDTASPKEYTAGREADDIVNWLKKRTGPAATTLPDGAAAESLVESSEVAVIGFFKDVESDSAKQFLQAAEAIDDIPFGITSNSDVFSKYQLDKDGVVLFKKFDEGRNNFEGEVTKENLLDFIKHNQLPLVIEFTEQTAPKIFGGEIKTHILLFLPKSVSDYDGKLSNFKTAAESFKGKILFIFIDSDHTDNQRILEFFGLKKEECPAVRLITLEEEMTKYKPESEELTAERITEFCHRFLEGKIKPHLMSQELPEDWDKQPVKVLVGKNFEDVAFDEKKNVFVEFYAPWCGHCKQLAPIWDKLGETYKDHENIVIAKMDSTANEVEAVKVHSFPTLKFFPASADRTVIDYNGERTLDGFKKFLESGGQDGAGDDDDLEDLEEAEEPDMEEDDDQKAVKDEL

`CC[C@H](C)[C@H](N)C1=N[C@H](C(=O)N[C@@H](CC(C)C)C(=O)N[C@H](CCC(=O)O)C(=O)N[C@H](C(=O)N[C@H]2CCCCNC(=O)[C@H](CC(N)=O)NC(=O)[C@@H](CC(=O)O)NC(=O)[C@H](Cc3cnc[nH]3)NC(=O)[C@@H](Cc3ccccc3)NC(=O)[C@H]([C@@H](C)CC)NC(=O)[C@@H](CCCN)NC2=O)[C@@H](C)CC)CS1` [bacitracin] (HELM PEPTIDE1{[CC[C@H](C)[C@H](N)C1=N[C@H](C(=O)[*:2])CS1].L.[dE].I.K.[NCCC[C@@H](N[*:1])C(=O)[*:2]].I.[dF].H.[dD].N}$PEPTIDE1,PEPTIDE1,5:R3-11:R2$$$V2.0): the IC50 was roughly 200 µM at PDI; 152 ± 25 µM in assay [1] (inhibitor incubated with enzyme and insulin 10 minutes prior to initiation with dithiothreitol, dose-response). In assay [1] (2 mM bacitracin added 30 min after initiation of the reaction), the “behaviour as stop reagent” value is “slow inhibitor”. The “inhibition of the enzyme reaction” value in assay [1] (bacitracin incubated with the enzyme prior to the addition of dithiothreitol) is listed as “dramatically inhibited the enzyme reaction”. In addition, the Hill slope in assay [1] (dose-response curve, non-linear regression) is 1.2±0.2 and 1.2.

Broadly, the IC50 is the concentration that inhibits the measured activity by half. One may read the Hill slope as the slope factor of the fitted curve.
